Test results published in ChEMBL document CHEMBL2074112 (Br J Cancer, 1996).

Molecular target: ATP-dependent translocase ABCB1 (Homo sapiens, UniProt P08183)
Test: TP_TRANSPORTER: increase in Rhodamine 123 intracellular accumulation (R123: 1.66 uM, Staurosporine: 80 uM) in MCF7/Adr cells
Format: functional, cell-based
Conditions: nci/adr-res

ATP-dependent translocase ABCB1, sequence (P08183 whole entry): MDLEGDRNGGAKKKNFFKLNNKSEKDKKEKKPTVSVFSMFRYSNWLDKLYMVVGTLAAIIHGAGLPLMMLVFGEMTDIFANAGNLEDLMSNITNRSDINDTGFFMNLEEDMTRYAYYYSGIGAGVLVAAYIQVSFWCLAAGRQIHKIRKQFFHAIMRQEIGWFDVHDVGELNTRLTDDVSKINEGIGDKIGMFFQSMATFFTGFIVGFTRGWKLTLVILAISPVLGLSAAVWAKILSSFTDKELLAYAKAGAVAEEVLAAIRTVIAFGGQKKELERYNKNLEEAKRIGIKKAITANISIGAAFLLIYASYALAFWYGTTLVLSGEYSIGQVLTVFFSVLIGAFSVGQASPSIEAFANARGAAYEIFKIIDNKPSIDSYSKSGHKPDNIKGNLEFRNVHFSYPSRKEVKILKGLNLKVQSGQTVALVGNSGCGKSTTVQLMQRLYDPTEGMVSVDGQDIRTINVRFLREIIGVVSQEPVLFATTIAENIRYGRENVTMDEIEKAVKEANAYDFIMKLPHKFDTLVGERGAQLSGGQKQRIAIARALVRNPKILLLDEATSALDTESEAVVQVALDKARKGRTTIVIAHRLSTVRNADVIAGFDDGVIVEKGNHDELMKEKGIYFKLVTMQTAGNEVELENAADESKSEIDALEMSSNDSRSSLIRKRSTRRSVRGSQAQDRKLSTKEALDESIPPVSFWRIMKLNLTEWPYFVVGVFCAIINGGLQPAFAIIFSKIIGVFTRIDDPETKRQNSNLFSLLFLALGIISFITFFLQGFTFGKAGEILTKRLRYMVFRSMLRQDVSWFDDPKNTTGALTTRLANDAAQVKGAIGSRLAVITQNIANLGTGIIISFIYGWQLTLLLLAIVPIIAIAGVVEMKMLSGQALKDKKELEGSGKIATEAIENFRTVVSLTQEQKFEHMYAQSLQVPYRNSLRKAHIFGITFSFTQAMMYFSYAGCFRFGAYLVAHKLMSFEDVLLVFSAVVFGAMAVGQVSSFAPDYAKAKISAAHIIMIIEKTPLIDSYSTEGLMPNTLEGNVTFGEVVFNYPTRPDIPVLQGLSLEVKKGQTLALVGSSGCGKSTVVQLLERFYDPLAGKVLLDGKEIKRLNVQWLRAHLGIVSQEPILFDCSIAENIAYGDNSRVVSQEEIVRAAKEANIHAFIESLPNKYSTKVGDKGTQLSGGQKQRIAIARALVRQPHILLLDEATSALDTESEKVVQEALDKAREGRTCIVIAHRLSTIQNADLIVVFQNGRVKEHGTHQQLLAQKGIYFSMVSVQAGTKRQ

For `CN[C@@H]1C[C@H]2O[C@@](C)([C@@H]1OC)n1c3ccccc3c3c4c(c5c6ccccc6n2c5c31)C(=O)NC4` [STAUROSPORINE], the Activity was 140%.
